Test results as given in patent US9084420B2, “Amide derivative, pest control agent containing the amide derivative, and pest controlling method” (Mitsui Chemicals Agro, Inc., priority 2008, dated 2015).

Assays:
Assay type in all cases: in vivo
[1] = test system: Spodoptera litura; experiment: Pesticidal test against Spodoptera litura (cabbage leaf immersion); conditions: 144 h, 2-stage larvae on treated cabbage leaf, 25° C., after 6 days, read-out: pesticidal rate
Description: (§1) Pesticidal Test Against Spodoptera litura A piece of a cabbage leaf was immersed for 30 seconds in a chemical solution in which a test compound had been diluted at a predetermined concentration, and air-dried, and then put into a 7 cm polyethylene cup having a filter paper laid on the bottom thereof, and 2-stage larvae of Spodoptera litura were released. They were left to stand in a thermostatic chamber at 25° C., and the numbers of the living pests and the dead pests were examined after 6 days. The test was carried out with five larvae per group in two replicates.

[2] = test system: Plutella xylostella; experiment: Pesticidal test against Plutella xylostella (cabbage leaf immersion); conditions: 144 h, 3-stage larvae on treated cabbage leaf, 25° C., after 6 days, read-out: pesticidal rate
Description: as §1, with “Plutella xylostella” for “Spodoptera litura”, “3-stage” for “2-stage”

[3] = test system: Spodoptera litura; experiment: Pesticidal test of penetration migration against Spodoptera litura (radish seedling root immersion); conditions: 72 h, radish seedling root immersed 2 days, leaf fed to 2-stage larvae, 25° C., after 3 days, read-out: pesticidal rate
Description: Pesticidal Test of Penetration Migration against Spodoptera litura A root portion of a radish seedling was immersed for 2 days in a chemical solution in which a test compound had been diluted at a predetermined concentration, then the leaf was cut and put into a 7 cm polyethylene cup having a filter paper laid on the bottom thereof, and 2-stage larvae of Spodoptera litura were released. They were left to stand in a thermostatic chamber at 25° C., and the numbers of the living pests and the dead pests were examined after 3 days. The test was carried out with five larvae per group in two replicates.

[4] = test system: Musca domestica; experiment: Pesticidal test against Musca domestica (petri dish residue); conditions: 24 h, acetone solution dried in petri dish, female adults, 25° C., after 1 day, read-out: pesticidal rate
Description: Pesticidal Test Against Musca domestica
1 ml of an acetone solution in which a test compound had been diluted at a predetermined concentration was added dropwise to a petri dish having a diameter of 9 cm, and air-dried, and then the female adults of Musca domestica were released and the petri dish was capped. They were left to stand in a thermostatic chamber at 25° C., and the numbers of the living pests and the dead pests were examined after 1 day. The test was carried out with […] in two replicates.

Compound	pest or weed control at 100 ppm [1] [%]	pest or weed control at 100 ppm [2] [%]	pest or weed control at 1 ppm [3] [%]	pest or weed control at 1000 ppm [4] [%]
Cc1cc(C(F)(C(F)(F)F)C(F)(F)F)cc(C)c1NC(=O)c1cccc(N(CCC(N)=O)C(=O)c2ccccc2)c1F [1-21, 3-(N-(3-amino-3-oxopropyl)benzamide)-N-(2,6-dimethyl-4-(perfluoropropan-2-yl)phenyl)-2-fluorobenzamide]	≥ 70	≥ 70	≥ 70	
NC(=O)CCN(C(=O)c1ccccc1)c1cccc(C(=O)Nc2c(Br)cc(C(F)(C(F)(F)F)C(F)(F)F)cc2Br)c1F [1-163, 3-(N-(3-amino-3-oxopropyl)benzamide)-N-(2,6-dibromo-4-(perfluoropropan-2-yl)phenyl)-2-fluorobenzamide]	≥ 70	≥ 70	≥ 70	
Cc1cc(C(F)(C(F)(F)F)C(F)(F)F)cc(C)c1NC(=O)c1cccc(N(CCC#N)C(=O)c2ccccc2)c1 [5-8, N-(2-cyanoethyl)-N-(3-(2,6-dimethyl-4-(perfluoropropan-2-yl)phenylcarbamoyl)phenyl)benzamide]	≥ 70	≥ 70		≥ 70
COC(=O)CCN(C(=O)c1ccccc1)c1cccc(C(=O)Nc2c(I)cc(C(F)(C(F)(F)F)C(F)(F)F)cc2C(F)(F)F)c1 [5-80, methyl 3-(N-(3-(2-iodo-4-(perfluoropropan-2-yl)-6-(trifluoromethyl)phenylcarbamoyl)phenyl)benzamide)propanoate]	≥ 70	≥ 70		≥ 70
CC(=O)CCN(C(=O)c1ccccc1)c1cccc(C(=O)Nc2c(C)cc(C(F)(C(F)(F)F)C(F)(F)F)cc2C)c1 [5-100, N-(3-(2,6-dimethyl-4-(perfluoropropan-2-yl)phenylcarbamoyl)phenyl)-N-(3-oxobutyl)benzamide]	≥ 70	≥ 70		≥ 70
C/C(CCN(C(=O)c1ccccc1)c1cccc(C(=O)Nc2c(C)cc(C(F)(C(F)(F)F)C(F)(F)F)cc2C)c1)=N\O [5-105, N-(3-(2,6-dimethyl-4-(perfluoropropan-2-yl)phenylcarbamoyl)phenyl)-N-(3-(hydroxyimino)butyl)benzamide]	≥ 70	≥ 70		≥ 70
COC(=O)CN(C(=O)c1ccccc1)c1cccc(C(=O)N(C)c2c(C)cc(C(F)(C(F)(F)F)C(F)(F)F)cc2C)c1 [6-1, methyl 2-(N-(3((2,6-dimethyl-4-(perfluoropropan-2-yl)phenyl)(methyl)carbamoyl)phenyl)benzamide)acetate]	≥ 70	≥ 70		
CSCN(C(=O)c1ccccc1)c1cccc(C(=O)N(C)c2c(C)cc(C(F)(C(F)(F)F)C(F)(F)F)cc2C)c1 [6-6, N-(2,6-dimethyl-4-(perfluoropropan-2-yl)phenyl)-N-methyl-3-(N-(methylthiomethyl)benzamide)benzamide]	≥ 70	≥ 70		
Cc1cc(C(F)(C(F)(F)F)C(F)(F)F)cc(C)c1N(C)C(=O)c1cccc(N(C[S+](C)[O-])C(=O)c2ccccc2)c1 (stereo not drawn) [6-7, N-(2,6-dimethyl-4-(perfluoropropan-2-yl)phenyl)-N-methyl-3-(N-(methylsulfinylmethyl)benzamide)benzamide]	≥ 70	≥ 70		
Cc1cc(C(F)(C(F)(F)F)C(F)(F)F)cc(C)c1N(C)C(=O)c1cccc(N(CS(C)(=O)=O)C(=O)c2ccccc2)c1 [6-8, N-(2,6-dimethyl-4-(perfluoropropan-2-yl)phenyl)-N-methyl-3-(N-(methylsulfonylmethyl)benzamide)benzamide]	≥ 70	≥ 70		
Cc1cc(C(F)(C(F)(F)F)C(F)(F)F)cc(C)c1N(C)C(=O)c1cccc(N(CC(N)=O)C(=O)c2ccccc2)c1 [6-12, 3-(N-(2-amino-2-oxoethyl)benzamide)-N-(2,6-dimethyl-4-(perfluoropropan-2-yl)phenyl)-N-methylbenzamide]	≥ 70	≥ 70		
Cc1cc(C(F)(C(F)(F)F)C(F)(F)F)cc(C)c1N(C)C(=O)c1cccc(N(CCCC(N)=O)C(=O)c2ccccc2)c1 [6-15, 3-(N-(4-amino-4-oxobutyl)benzamide)-N-(2,6-dimethyl-4-(perfluoropropan-2-yl)phenyl)-N-methylbenzamide]	≥ 70	≥ 70		
Cc1cc(C(F)(C(F)(F)F)C(F)(F)F)cc(C)c1NC(=O)c1cccc(N(CCCC(N)=O)C(=O)c2ccccc2)c1 [6-16, N-(4-amino-4-oxobutyl)-N-(3-(2,6-dimethyl-4-(perfluoropropan-2-yl)phenylcarbamoyl)phenyl)benzamide]	≥ 70	≥ 70		≥ 70
Cc1cc(C(F)(C(F)(F)F)C(F)(F)F)cc(C)c1N(C)C(=O)c1cccc(N(CC#N)C(=O)c2ccccc2)c1 [6-18, 3-(N-(cyanomethyl)benzamide)-N-(2,6-dimethyl-4-(perfluoropropan-2-yl)phenyl)-N-methylbenzamide]	≥ 70	≥ 70		
Cc1cc(C(F)(C(F)(F)F)C(F)(F)F)cc(C)c1NC(=O)c1cccc(N(CCCN)C(=O)c2ccccc2)c1 [6-20, N-(3-aminopropyl)-N-(3-(2,6-dimethyl-4-(perfluoropropan-2-yl)phenylcarbamoyl)phenyl)benzamide]	≥ 70	≥ 70		
CC(C)(C)OC(=O)C(CN(C(=O)c1cccc(C#N)c1)c1cccc(C(=O)Nc2c(Br)cc(C(F)(C(F)(F)F)C(F)(F)F)cc2Br)c1F)C(=O)OC(C)(C)C [6-44, di-tert-butyl 2-((3-cyano-N-(3-(2,6-dibromo-4-(perfluoropropan-2-yl)phenylcarbamoyl)-2-fluorophenyl)benzamide)methyl)malonate]	≥ 70	≥ 70		≥ 70
CNC(=O)NCCCN(C(=O)c1ccccc1)c1cccc(C(=O)Nc2c(C)cc(C(F)(C(F)(F)F)C(F)(F)F)cc2C)c1 [6-49, N-(3-(2,6-dimethyl-4-(perfluoropropan-2-yl)phenylcarbamoyl)phenyl)-N-(3-(3-methylureido)propyl)benzamide]	≥ 70	≥ 70		
Cc1cc(C(F)(C(F)(F)F)C(F)(F)F)cc(C)c1NC(=O)c1cccc(N(CC=O)C(=O)c2ccccc2)c1 [6-59, N-(3-(2,6-dimethyl-4-(perfluoropropan-2-yl)phenylcarbamoyl)phenyl)-N-(2-oxoethyl)benzamide]	≥ 70	≥ 70		
Cc1cc(C(F)(C(F)(F)F)C(F)(F)F)cc(C)c1N(CCC(N)=O)C(=O)c1cccc(NC(=O)c2ccccc2)c1 [7-1, N-(3-amino-3-oxopropyl)-3-benzamide-N-(2,6-dimethyl-4-(perfluoropropan-2-yl)phenyl)benzamide]	≥ 70	≥ 70		
Cc1cc(C(F)(C(F)(F)F)C(F)(F)F)cc(C)c1N(CC(N)=O)C(=O)c1cccc(N(C)C(=O)c2ccccc2)c1F [7-220, N-(2-amino-2-oxoethyl)-N-(2,6-dimethyl-4-(perfluoropropan-2-yl)phenyl)-2-fluoro-3-(N-methylbenzamide)benzamide]	≥ 70	≥ 70		
COC(=O)CN(C(=O)c1cccc(N(C)C(=O)c2ccccc2)c1F)c1c(C)cc(C(F)(C(F)(F)F)C(F)(F)F)cc1C [7-221, methyl 2-(N-(2,6-dimethyl-4-(perfluoropropan-2-yl)phenyl)-2-fluoro-3-(N-methylbenzamide)benzamide)acetate]	≥ 70	≥ 70		
Cc1cc(C(F)(C(F)(F)F)C(F)(F)F)cc(C)c1N(CC(=O)O)C(=O)c1cccc(N(C)C(=O)c2ccccc2)c1F [7-222, 2-(N-(2,6-dimethyl-4-(perfluoropropan-2-yl)phenyl)-2-fluoro-3-(N-methylbenzamide)benzamide)acetic acid]	≥ 70	≥ 70		
COC(=O)CN(C(=O)c1ccccc1)c1cccc(C(=O)N(CC(=O)OC)c2c(C)cc(C(F)(C(F)(F)F)C(F)(F)F)cc2C)c1F [8-12, methyl 2-(N-(3((2,6-dimethyl-4-(perfluoropropan-2-yl)phenyl)(2-methoxy-2-oxoethyl)carbamoyl)-2-fluorophenyl)benzamide)acetate]	≥ 70	≥ 70		
